Consider 22 molecules from ChEMBL document CHEMBL1151584, “6-Substituted Quinazolinone Angiotensin II Receptor Antagonists” (Bioorg Med Chem Lett, 1994).

The target in one assay is T1, Type-1 angiotensin II receptor (Bos taurus, UniProt P25104).
T1 sequence (P25104 whole entry): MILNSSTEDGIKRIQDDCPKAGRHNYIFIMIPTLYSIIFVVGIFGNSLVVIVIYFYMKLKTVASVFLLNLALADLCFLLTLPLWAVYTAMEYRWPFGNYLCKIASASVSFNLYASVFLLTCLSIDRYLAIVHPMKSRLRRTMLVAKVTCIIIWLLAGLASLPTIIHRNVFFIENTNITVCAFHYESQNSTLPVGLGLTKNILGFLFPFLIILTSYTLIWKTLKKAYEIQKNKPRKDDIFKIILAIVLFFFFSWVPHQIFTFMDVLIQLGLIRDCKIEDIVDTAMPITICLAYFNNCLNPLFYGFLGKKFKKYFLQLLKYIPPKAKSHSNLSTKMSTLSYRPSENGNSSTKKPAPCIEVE
Nature of the assay: In vitro binding affinity to angiotensin II receptor in bovine adrenal cortex. The format is tissue-based.
Settings: not given
As usually defined, the IC50 is the concentration that gives 50% inhibition. `CCCCc1nc2ccc([C@@H]3[C@H]4CCCN3OC4)cc2c(=O)n1Cc1ccc(-c2ccccc2-c2nnn[nH]2)cc1` had an IC50 of 16 nM.

For `CCCCc1nc2ccc([C@H]3[C@@H]4C(=O)CC[C@@H]4ON3Cc3ccccc3)cc2c(=O)n1Cc1ccc(-c2ccccc2-c2nnn[nH]2)cc1`, the IC50 was found to be 79 nM.

With `CCCCc1nc2ccc([C@@H]3C[C@H]4C(c5ccc(C)cc5)=NO[C@H]4O3)cc2c(=O)n1Cc1ccc(-c2ccccc2-c2nnn[nH]2)cc1`, the IC50 amounted to 105 nM. This IC50 and that of the molecule before are within 1.5-fold of each other.

As to `CCCCc1nc2ccc([C@@H]3[C@@H]4C(=O)OC[C@@H]4ON3C)cc2c(=O)n1Cc1ccc(-c2ccccc2-c2nnn[nH]2)cc1`, the IC50 worked out at 150 nM.

With `CCCCc1nc2ccc([C@@H]3C[C@H]4C(c5ccccc5)=NO[C@H]4O3)cc2c(=O)n1Cc1ccc(-c2ccccc2-c2nn[nH]n2)cc1`, the IC50 came to 76 nM.

Molecule `CCCCc1nc2ccc([C@@H]3C[C@H]4CCCCN3O4)cc2c(=O)n1Cc1ccc(-c2ccccc2-c2nnn[nH]2)cc1` had an IC50 of 42 nM.

Take `CCCCc1nc2ccc([C@@H]3C[C@H](CO)ON3C)cc2c(=O)n1Cc1ccc(-c2ccccc2-c2nn[nH]n2)cc1`: the IC50 came to 61 nM.

With `CCCCc1nc2ccc([C@H]3[C@@H]4C(=O)CCC[C@@H]4ON3C)cc2c(=O)n1Cc1ccc(-c2ccccc2-c2nn[nH]n2)cc1`, the IC50 was 900 nM.

`CCCCc1nc2ccc([C@@H]3C[C@H]4C5CCC(C)(C)N5O[C@H]4O3)cc2c(=O)n1Cc1ccc(-c2ccccc2-c2nn[nH]n2)cc1` (stereo partly specified): the IC50 was 32 nM.

Regarding `CCCCc1nc2ccc([C@@H]3[C@@H]4C(=O)OC[C@@H]4ON3Cc3ccccc3)cc2c(=O)n1Cc1ccc(-c2ccccc2-c2nn[nH]n2)cc1`, the IC50 amounted to 94 nM.

With `CCCCc1nc2ccc(C3=NN[C@H]4C(=O)N(C)C(=O)[C@@H]34)cc2c(=O)n1Cc1ccc(-c2ccccc2-c2nn[nH]n2)cc1`, the IC50 stood at 110 nM.

In the case of `CCCCc1nc2ccc([C@H]3OC[C@H]4[C@@H]3ON3[C@@H]4CCC3(C)C)cc2c(=O)n1Cc1ccc(-c2ccccc2-c2nnn[nH]2)cc1`, the IC50 was 53 nM.

`CCCCc1nc2ccc([C@H]3C[C@H](CO)ON3C)cc2c(=O)n1Cc1ccc(-c2ccccc2-c2nnn[nH]2)cc1` showed an IC50 of 43 nM. This IC50 and that of the molecule before are within 1.5-fold of each other.

Regarding `CCCCc1nc2ccc([C@@H]3[C@@H]4C(=O)CC[C@@H]4ON3C)cc2c(=O)n1Cc1ccc(-c2ccccc2-c2nn[nH]n2)cc1`, the IC50 came out at 42 nM.

`CCCCc1nc2ccc([C@H]3[C@@H]4C(=O)OC[C@@H]4ON3C)cc2c(=O)n1Cc1ccc(-c2ccccc2-c2nn[nH]n2)cc1` displayed an IC50 of 68 nM. This IC50 lies about 1.6-fold higher than the previous one.

In turn, `CCCCc1nc2ccc([C@H]3[C@@H]4CCC[C@@H]4ON3C)cc2c(=O)n1Cc1ccc(-c2ccccc2-c2nnn[nH]2)cc1` had an IC50 of 98 nM.

Molecule `CCCCc1nc2ccc([C@H]3C4CCCCCCC4ON3C)cc2c(=O)n1Cc1ccc(-c2ccccc2-c2nn[nH]n2)cc1` (stereo partly specified) displayed an IC50 of 180 nM.

Molecule `CCCCc1nc2ccc([C@H]3[C@@H]4C(=O)CC[C@@H]4ON3C)cc2c(=O)n1Cc1ccc(-c2ccccc2-c2nnn[nH]2)cc1` came in with an IC50 of 98 nM.

With `CCCCc1nc2ccc([C@H]3[C@@H]4C(=O)OC[C@@H]4ON3Cc3ccccc3)cc2c(=O)n1Cc1ccc(-c2ccccc2-c2nnn[nH]2)cc1`, the IC50 stood at 177 nM.

The molecule `CCCCc1nc2ccc([C@H]3OC[C@@H]4ON5[C@@H](CCC5(C)C)[C@@H]43)cc2c(=O)n1Cc1ccc(-c2ccccc2-c2nn[nH]n2)cc1` showed an IC50 of 38 nM.

Take `CCCCc1nc2ccc([C@H]3C4CCCC4ON3C)cc2c(=O)n1Cc1ccc(-c2ccccc2-c2nn[nH]n2)cc1` (stereo partly specified): the IC50 was 154 nM.

The next assay concerns Rattus norvegicus. Nature of the assay: Decrease in Mean Arterial Blood Pressure(MABP) in Aorta […] rat model at a dose of 3 mg/kg p.o. The class given is functional. The note with it: route oral.
Regarding `CCCCc1nc2ccc(C3CCC4CCCCC4O3)cc2c(=O)n1Cc1ccc(-c2ccccc2-c2nn[nH]n2)cc1` (stereo unspecified), the MABP was determined as 15 mmHg.

`CCCCc1nc2ccc([C@H]3[C@@H]4C(=O)OC[C@@H]4ON3C)cc2c(=O)n1Cc1ccc(-c2ccccc2-c2nn[nH]n2)cc1` gave an MABP of 60 mmHg.

`CCCCc1nc2ccc([C@H]3OC[C@@H]4ON5[C@@H](CCC5(C)C)[C@@H]43)cc2c(=O)n1Cc1ccc(-c2ccccc2-c2nn[nH]n2)cc1` displayed an MABP of 45 mmHg.

System in the next assay: not listed separately
Nature of the assay: Percent blockade of the vasopressor response to A II (0.05 ug/kg i.v.) at a dose of 5 mg/kg p.o. in A II challenge model. The note with it: route oral. The class given is functional.
`CCCCc1nc2ccc([C@@H]3[C@@H]4C(=O)CC[C@@H]4ON3C)cc2c(=O)n1Cc1ccc(-c2ccccc2-c2nn[nH]n2)cc1` returned an Activity of 95%.

System in the next assay: not listed separately
Nature of the assay: Percent blockade of the vasopressor response to A II (0.05 ug/kg i.v.) at a dose of 5 mg/kg p.o. in A II challenge model. The class given is functional. The settings on record: route oral.
Molecule `CCCCc1nc2ccc([C@H]3[C@@H]4C(=O)OC[C@@H]4ON3C)cc2c(=O)n1Cc1ccc(-c2ccccc2-c2nn[nH]n2)cc1` returned an Activity of 95%.
